Earlier results as cited in patent publication US8518371B2, “Hypoxia-selective, weakly basic 2-nitroimidazole delivery agents and methods of use thereof” (Natural Pharmacia International, Inc., priority 2006, dated 2013).

Key:
animal models = conditions: in vivo
[1] = in vivo
[2] = escalating, rarely to

Compound | safety and efficacy in animal models (animal models) | selectivity for tumor cells (tumor cells) | retention times in tissues [1] | MTD [2] [mg/m^2]
N[C@@H](Cc1ccc(B(O)O)cc1)C(=O)O [BPA, L-4-dihydroxy-borylphenylalanine] | safe and efficacious | moderate | low | –
CC[C@]1(O)C[C@@H]2CN(CCc3c([nH]c4ccccc34)[C@@](C(=O)OC)(c3cc4c(cc3OC)N(C)[C@H]3[C@@](O)(C(=O)OC)[C@H](OC(C)=O)[C@]5(CC)C=CCN6CC[C@]43[C@@H]65)C2)C1 [vinblastine] | – | – | – | ≤ 18.5
disodium mercapto-closo-dodecaborate [BSH] | safe and efficacious | moderate | low | –
